Measured values taken from PubChem BioAssay (NCI).
Values joined by “and” are separate entries in the source; they are usually repeats but may differ in a detail not shown here. Identical values can stand only once.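 48-hour exposure; five concentrations; linearly interpolated endpoints. GI50: concentration for 50% inhibition of growth. TGI denotes the concentration required for complete inhibition of growth.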

Key:
Assay in all cases: inhibition of tumour cell growth, NCI panel, 48 h
UACC-257 melanoma = system: UACC-257 melanoma
HCC-2998 colon = system: HCC-2998 colon
KM12 colon = system: KM12 colon
RXF 393 renal = system: RXF 393 renal
HCT-15 colon = system: HCT-15 colon
NCI-H226 lung = system: NCI-H226 lung
M14 melanoma = system: M14 melanoma
NCI-H23 lung = system: NCI-H23 lung
K-562 leukemia = system: K-562 leukemia
A549 NSCLC = system: A549 NSCLC

Structure (SMILES)	TGI (UACC-257 melanoma)	TGI (HCC-2998 colon)	TGI (KM12 colon)	TGI (RXF 393 renal)	TGI (HCT-15 colon)	TGI (NCI-H226 lung)	TGI (M14 melanoma)	TGI (NCI-H23 lung)	TGI (K-562 leukemia)	TGI (A549 NSCLC)	GI50 (UACC-257 melanoma)	GI50 (HCC-2998 colon)	GI50 (KM12 colon)	GI50 (RXF 393 renal)	GI50 (HCT-15 colon)	GI50 (NCI-H226 lung)	GI50 (M14 melanoma)	GI50 (NCI-H23 lung)	GI50 (K-562 leukemia)	GI50 (A549 NSCLC)
CCCCCCCC(=O)OC[n+]1cccc(-c2c(COC(=O)NC(C)C)c(COC(=O)NC(C)C)c3n2CCC3)c1	> 100 µM	> 100 µM	> 100 µM	97.2 µM	> 100 µM	> 100 µM	> 100 µM	> 100 µM	> 100 µM	> 100 µM	–	–	–	–	–	–	–	–	–	–
Nc1cccc(C(=O)/C=C/c2ccccc2O)c1	> 100 µM	> 100 µM	> 100 µM	> 100 µM	> 100 µM	> 100 µM	> 100 µM	> 100 µM	> 100 µM	> 100 µM	–	–	–	–	–	–	–	–	–	–
Cc1cccc(NC(=O)CSc2nnc(-c3ccc(N=Cc4ccc(Cl)cc4)cc3)o2)c1	> 100 µM	–	> 100 µM	> 100 µM	> 100 µM	> 100 µM	> 100 µM	> 100 µM	> 100 µM	> 100 µM	–	–	–	–	–	–	–	–	–	–
O=C(Cc1csc2nc(-c3ccc(Br)cc3)cn12)N/N=C/c1ccccc1O	11.6 µM	12.7 µM	16.8 µM	62.5 µM	17.3 µM	7.84 µM	7.77 µM	14 µM	2.95 µM	24.2 µM	3.68 µM	3.48 µM	3.62 µM	37.7 µM	0.952 µM	1.93 µM	2.58 µM	3.43 µM	0.0372 µM	6.22 µM
N#CC(C#N)=C/C=C/c1ccccc1[N+](=O)[O-]	> 10 µM	> 10 µM	> 10 µM	9.53 µM	> 10 µM	> 10 µM	–	> 10 µM	> 10 µM	> 10 µM	–	–	–	–	–	–	–	–	–	–
Cc1cc2nc3c(C(OC4OC(CO)C(O)C(O)C4O)C(O)CO)nn(-c4ccc(F)cc4)c3nc2cc1C (stereo not given)	> 100 µM	> 100 µM	> 100 µM	> 100 µM	> 100 µM	–	> 100 µM	> 100 µM	> 100 µM	–	–	–	–	–	–	–	–	–	–	–
c1ccc(-c2nc3ccccc3[nH]2)c(OCCCCCOc2ccccc2-c2nc3ccccc3[nH]2)c1	65.3 µM	67.2 µM	72.4 µM	–	18.4 µM	47.4 µM	44.1 µM	45.4 µM	> 100 µM	–	17.9 µM	16.1 µM	15.8 µM	–	4.64 µM	20 µM	13.4 µM	13.1 µM	4.35 µM	–
COc1ccc2cc1Oc1ccc(cc1)CC1c3c(cc(OC)c4c3Oc3cc5c(cc3O4)CCNC5C2)CCN1C (stereo not given)	3.14 µM and 3.5 µM	2.53 µM and 2.5 µM	3.33 µM and 2.85 µM	0.883 µM	3.73 µM and 4.31 µM	4.18 µM	6.83 µM and 3.25 µM	4.54 µM and 3.22 µM	–	4.07 µM	1.9 µM	1.2 µM	1.46 µM	0.288 µM	1.86 µM	2.3 µM	1.73 µM	1.53 µM	–	–
Cc1cn([C@H]2CN(O)C[C@@H](CO)O2)c(=O)[nH]c1=O	> 100 µM	> 100 µM	> 100 µM	> 100 µM	> 100 µM	> 100 µM	> 100 µM	–	> 100 µM	> 100 µM	–	–	–	–	–	–	–	–	–	–
C=C(/C=C/C=C(\CO)CCC=C(C)C)[C@H]1CCC2([C@H](CCCO)/C(=C(/C)C=O)CC[C@]2(C)O)[C@H]1O (stereo not given in full)	> 100 µM	> 100 µM	> 100 µM	–	> 100 µM	–	> 100 µM	> 100 µM	> 100 µM	> 100 µM	–	–	–	–	–	–	–	–	–	–
O=C(CC/C(CC(=O)c1ccc(Cl)cc1)=N\O)Nc1cccc(Cl)c1	> 100 µM	> 100 µM	> 100 µM	–	> 100 µM	–	> 100 µM	> 100 µM	> 100 µM	> 100 µM	–	–	–	–	–	–	–	–	–	–
O=C(Cn1ccnc1[N+](=O)[O-])NCc1ccc(F)cc1	> 100 µM	–	> 100 µM	> 100 µM	> 100 µM	> 100 µM	> 100 µM	> 100 µM	> 100 µM	> 100 µM	–	–	–	–	–	–	–	–	–	–
COc1ccc(/C(C#N)=C2/O/C(=N/N)C(c3ccc(OC)c(OC)c3)C2=O)cc1OC (stereo not given)	> 100 µM	–	> 100 µM	–	> 100 µM	> 100 µM	> 100 µM	> 100 µM	> 100 µM	> 100 µM	–	–	–	–	–	–	–	–	–	–
OCCN1CCCN(CCCN2c3ccccc3Sc3ccc(C(F)(F)F)cc32)CC1	3.65 µM	3.33 µM	4.69 µM	11.2 µM	10.3 µM	39.1 µM	3.9 µM	–	3.23 µM	15.6 µM	1.94 µM	1.81 µM	2.27 µM	2.59 µM	2.74 µM	15.1 µM	1.97 µM	–	1.57 µM	4.69 µM
COc1ccc(C2C(C(=O)O)=C(COC(C)=O)Oc3cc4c(cc32)OCO4)c(OC)c1 (stereo not given)	> 100 µM	–	–	> 100 µM	> 100 µM	–	> 100 µM	> 100 µM	> 100 µM	> 100 µM	–	–	–	–	–	–	–	–	–	–
CCOC(=O)C(=O)Nc1nc2ccc(OC)cc2s1	> 100 µM	> 100 µM	> 100 µM	–	> 100 µM	> 100 µM	> 100 µM	> 100 µM	> 100 µM	> 100 µM	–	–	–	–	–	–	–	–	–	–
COc1cc2c(c(OC)c1OC)-c1ccc(SC)c(=O)cc1C(CC(=O)Oc1ccccc1F)C2 (stereo not given)	–	0.373 µM	0.0493 µM	–	0.248 µM	0.444 µM	0.908 µM	0.0894 µM	> 7.5 µM	> 7.5 µM	–	–	–	–	–	–	–	–	–	–
O=C(Nc1ccc(-n2cc(-c3ccncc3)c(-c3ccc(Cl)c(O)c3)n2)cc1)c1ccc(Cl)c(Cl)c1	> 100 µM	19.7 µM	> 100 µM	–	> 100 µM	> 100 µM	7.56 µM	> 100 µM	> 100 µM	> 100 µM	4.74 µM	3.43 µM	3.05 µM	–	1.12 µM	26.1 µM	2.35 µM	4.18 µM	1.32 µM	6.71 µM
Cc1ccc(-n2cc(/C(N)=N/O)c3ccccc3c2=O)cc1	> 100 µM	> 100 µM	> 100 µM	–	> 100 µM	> 100 µM	> 100 µM	> 100 µM	> 100 µM	> 100 µM	–	–	–	–	–	–	–	–	–	–
